SMILES strings stand for the structures. Active and inactive are the calls of the source. No cut-off for these calls is given here.

Assay [1] deals with K562. The assay can be described thus: cells. To be noted: Homo sapiens, K562, 48 h.
Assay [2] has as its system HepG2. Briefly: cells. Conditions: Homo sapiens, HepG2, 48 h.
Assay [3] relates to MCF7. Briefly: cells. To be noted: Homo sapiens, MCF7, 48 h.
The subject of assay [4] is K562. The assay can be described thus: Ratio of imatinib IC50 to compound IC50 for human K562 cells after 48 hrs by MTT assay. Type of assay: functional. Background: Tetrazolium dyes change colour on reduction, which living cells bring about.
Assay [5] has as its system SK-MEL-28. Briefly: Growth inhibition of SK-MEL-28 cells. To be noted: Homo sapiens.
Assay [6] is described as follows: Growth inhibition of A375M cells. To be noted: Homo sapiens.
Assay [7] concerns Malme-3M. The assay can be described thus: cells. To be noted: Homo sapiens.
Description: Growth inhibition of MALME-3M cells
In assay [8] the target is Proto-oncogene tyrosine-protein kinase Src (Homo sapiens) (UniProt P12931). The assay can be described thus: Inhibition of SRC at 50 uM after 1 hr.
Assay [9] has as its target Vascular endothelial growth factor receptor 2 (Homo sapiens) (UniProt P35968). The assay can be described thus: Inhibition of VEGFR2 at 50 uM after 1 hr.
Assay [10] concerns the target DNA topoisomerase 2-alpha (Homo sapiens) (UniProt P11388). The assay can be described thus: Inhibition of human topoisomerase 2 at 1 to 50 uM for 40 mins using ethidium bromide by decatenation assay.
In assay [11] the target is Vascular endothelial growth factor receptor 2 (Homo sapiens) (UniProt P35968). The assay can be described thus: Inhibition of VEGFR2 in human K562 cells assessed as reduction in activated ERK1/2 levels at 10 uM by Western blot analysis. Type of assay: cell-based.
For assay [12], the target named is Proto-oncogene tyrosine-protein kinase Src (Homo sapiens) (UniProt P12931). The assay can be described thus: Inhibition of SRC in human K562 cells assessed as reduction in activated ERK1/2 levels at 10 uM by Western blot analysis. Type of assay: cell-based. Conditions: TDE = time-dependent effect. (A western blot detects proteins with antibodies after separation by electrophoresis.)

Sequence of Proto-oncogene tyrosine-protein kinase Src (Homo sapiens) (P12931 2-536 limits assumed): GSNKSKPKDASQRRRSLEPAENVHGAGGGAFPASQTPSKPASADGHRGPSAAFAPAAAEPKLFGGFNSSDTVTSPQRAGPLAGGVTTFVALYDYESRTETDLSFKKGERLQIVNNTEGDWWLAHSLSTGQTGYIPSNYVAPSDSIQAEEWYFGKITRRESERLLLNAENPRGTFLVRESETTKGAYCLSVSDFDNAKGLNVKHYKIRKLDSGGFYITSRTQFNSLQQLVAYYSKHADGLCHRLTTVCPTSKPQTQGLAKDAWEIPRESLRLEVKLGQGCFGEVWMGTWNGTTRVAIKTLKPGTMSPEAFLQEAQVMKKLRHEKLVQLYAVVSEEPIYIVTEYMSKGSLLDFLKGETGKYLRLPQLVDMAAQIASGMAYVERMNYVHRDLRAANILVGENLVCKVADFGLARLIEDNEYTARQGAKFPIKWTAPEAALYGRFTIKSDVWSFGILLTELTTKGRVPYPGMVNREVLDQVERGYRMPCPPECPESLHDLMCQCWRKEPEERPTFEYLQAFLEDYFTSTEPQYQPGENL
Sequence of Vascular endothelial growth factor receptor 2 (Homo sapiens) (P35968 whole entry): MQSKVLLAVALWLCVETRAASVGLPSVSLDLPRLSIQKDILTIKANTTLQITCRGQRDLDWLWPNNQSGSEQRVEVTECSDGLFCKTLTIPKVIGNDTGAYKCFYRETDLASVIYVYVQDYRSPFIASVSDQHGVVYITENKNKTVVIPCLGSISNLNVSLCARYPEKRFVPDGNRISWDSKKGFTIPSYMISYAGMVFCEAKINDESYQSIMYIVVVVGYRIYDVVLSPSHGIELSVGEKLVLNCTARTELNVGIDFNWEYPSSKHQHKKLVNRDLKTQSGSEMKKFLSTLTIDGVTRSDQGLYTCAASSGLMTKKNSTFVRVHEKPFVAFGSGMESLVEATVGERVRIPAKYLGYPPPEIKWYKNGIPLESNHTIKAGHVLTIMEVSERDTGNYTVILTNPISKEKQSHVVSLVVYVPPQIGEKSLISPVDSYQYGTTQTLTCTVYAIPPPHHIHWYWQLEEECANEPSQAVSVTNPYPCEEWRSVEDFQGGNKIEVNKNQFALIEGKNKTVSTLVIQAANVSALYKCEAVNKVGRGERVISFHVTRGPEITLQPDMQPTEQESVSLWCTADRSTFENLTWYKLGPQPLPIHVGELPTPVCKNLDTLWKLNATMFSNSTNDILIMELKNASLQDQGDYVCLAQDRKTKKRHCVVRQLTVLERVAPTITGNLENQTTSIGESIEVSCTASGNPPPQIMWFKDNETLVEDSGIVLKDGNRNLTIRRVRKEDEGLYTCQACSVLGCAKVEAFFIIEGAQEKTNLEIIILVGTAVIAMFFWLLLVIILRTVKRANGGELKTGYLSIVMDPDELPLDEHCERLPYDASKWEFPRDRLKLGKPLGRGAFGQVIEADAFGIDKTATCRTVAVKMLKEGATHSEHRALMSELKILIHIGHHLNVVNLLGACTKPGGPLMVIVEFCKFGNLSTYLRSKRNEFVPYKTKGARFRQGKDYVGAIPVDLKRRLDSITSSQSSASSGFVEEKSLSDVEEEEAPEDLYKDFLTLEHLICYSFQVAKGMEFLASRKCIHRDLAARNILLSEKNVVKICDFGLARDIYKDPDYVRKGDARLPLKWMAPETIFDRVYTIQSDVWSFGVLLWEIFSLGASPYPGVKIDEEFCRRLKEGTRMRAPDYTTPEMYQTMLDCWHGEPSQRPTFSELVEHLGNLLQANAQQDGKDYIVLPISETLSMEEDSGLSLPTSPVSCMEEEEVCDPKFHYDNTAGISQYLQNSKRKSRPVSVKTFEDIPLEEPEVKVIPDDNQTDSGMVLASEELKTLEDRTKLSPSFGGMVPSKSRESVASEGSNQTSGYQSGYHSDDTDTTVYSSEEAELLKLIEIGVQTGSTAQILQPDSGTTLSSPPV
Sequence of DNA topoisomerase 2-alpha (Homo sapiens) (P11388 whole entry): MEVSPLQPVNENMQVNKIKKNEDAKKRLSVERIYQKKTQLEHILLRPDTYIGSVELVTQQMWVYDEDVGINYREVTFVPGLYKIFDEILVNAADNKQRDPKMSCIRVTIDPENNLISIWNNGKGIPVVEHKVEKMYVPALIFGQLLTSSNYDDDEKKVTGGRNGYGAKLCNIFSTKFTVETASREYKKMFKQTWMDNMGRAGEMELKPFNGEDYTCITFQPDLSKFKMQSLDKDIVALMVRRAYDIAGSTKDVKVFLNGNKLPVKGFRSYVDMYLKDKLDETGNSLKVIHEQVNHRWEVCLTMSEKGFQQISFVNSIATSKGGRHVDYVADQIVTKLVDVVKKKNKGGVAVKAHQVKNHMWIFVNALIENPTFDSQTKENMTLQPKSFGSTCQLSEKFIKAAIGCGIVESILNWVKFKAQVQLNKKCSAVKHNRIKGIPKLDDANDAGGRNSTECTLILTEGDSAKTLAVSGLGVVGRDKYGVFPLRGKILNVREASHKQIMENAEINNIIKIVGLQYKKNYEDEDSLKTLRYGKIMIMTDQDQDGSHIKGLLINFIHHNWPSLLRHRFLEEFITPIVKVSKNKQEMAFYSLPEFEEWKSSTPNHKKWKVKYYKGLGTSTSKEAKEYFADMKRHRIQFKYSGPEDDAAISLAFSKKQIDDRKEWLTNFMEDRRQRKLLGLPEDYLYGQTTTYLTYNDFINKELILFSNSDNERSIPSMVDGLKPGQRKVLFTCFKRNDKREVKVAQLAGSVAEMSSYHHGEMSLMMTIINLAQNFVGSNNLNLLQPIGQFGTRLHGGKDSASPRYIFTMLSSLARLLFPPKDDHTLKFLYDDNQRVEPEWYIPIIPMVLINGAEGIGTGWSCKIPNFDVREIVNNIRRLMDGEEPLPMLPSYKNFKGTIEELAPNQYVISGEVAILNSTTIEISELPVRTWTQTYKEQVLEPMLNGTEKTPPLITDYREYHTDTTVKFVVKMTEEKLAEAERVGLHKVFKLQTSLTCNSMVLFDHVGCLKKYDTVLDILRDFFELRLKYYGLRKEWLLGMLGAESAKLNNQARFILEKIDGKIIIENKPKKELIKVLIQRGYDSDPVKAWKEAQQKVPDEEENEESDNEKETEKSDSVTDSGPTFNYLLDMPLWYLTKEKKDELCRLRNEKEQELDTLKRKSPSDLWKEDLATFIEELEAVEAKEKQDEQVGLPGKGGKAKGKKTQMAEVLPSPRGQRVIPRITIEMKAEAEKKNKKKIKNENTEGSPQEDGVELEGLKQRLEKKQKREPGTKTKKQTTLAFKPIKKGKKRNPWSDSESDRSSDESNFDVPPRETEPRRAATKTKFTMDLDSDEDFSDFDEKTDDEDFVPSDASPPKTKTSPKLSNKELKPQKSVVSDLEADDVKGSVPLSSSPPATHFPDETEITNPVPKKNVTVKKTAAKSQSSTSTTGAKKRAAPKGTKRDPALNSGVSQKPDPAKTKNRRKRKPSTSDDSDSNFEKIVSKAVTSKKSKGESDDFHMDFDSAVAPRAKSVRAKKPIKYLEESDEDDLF

Take `COc1ccc2nc3cc(Cl)ccc3c(Nc3ccncc3)c2c1`: the 50% inhibitory concentration (IC50) in assay [1] was 7.3 µM; in [2], 4.1 µM; in [3] it was more than 50 µM.
On to `COc1ccc(Nc2c3ccc(Cl)cc3nc3ccc(OC)cc23)cc1`, for which the “Ratio IC50” value in assay [4] is 2.5. In addition, the IC50 in [1] is 2.2 µM; in [2], 6.3 µM; in assay [3], more than 50 µM.
`COc1ccc2nc3cc(Cl)ccc3c(Nc3ccccc3Cl)c2c1`: the IC50 was 23.8 µM in assay [1], 30.2 µM in [2] and more than 50 µM in assay [3].
Take `Cn1c(Nc2ccc(C(F)(F)F)cc2)nc2cc(Oc3ccnc(-c4ncc(C(F)(F)F)[nH]4)c3)ccc21` [RAF-265]: the concentration for half-maximal inhibition (IC50) in assay [5], in assay [6] and in assay [7] was 0.14 µM in each case.
On to `COc1ccc2nc3cc(Cl)ccc3c(Nc3ccc(C)cc3)c2c1`, for which the concentration for half-maximal inhibition (IC50) stood at 5.5 µM in assay [1], 8.8 µM in [2] and 19.9 µM in assay [3].
On the same counts, the results for `COc1ccc2nc3cc(Cl)ccc3c(Nc3cccc(O)c3)c2c1` are 5.5 µM, 9.6 µM and 13.2 µM.
In the case of `CN[C@@H]1C[C@H]2O[C@@](C)([C@@H]1OC)n1c3ccccc3c3c4c(c5c6ccccc6n2c5c31)C(=O)NC4`, the inhibition in assay [8] was 99.4%.
As to `COc1ccc2nc3cc(Cl)ccc3c(Nc3ccc(OC(F)(F)F)cc3)c2c1`, the concentration for half-maximal inhibition (IC50) turned out to be 9.7 µM in [1], 10.2 µM in assay [2] and 18.9 µM in assay [3].
Take `COc1ccc2nc3cc(Cl)ccc3c(Nc3ccc(C(=O)O)c(O)c3)c2c1`: the values for the inhibition in assay [8] and in [9] were 2.8% and 5.4%, respectively. In addition, the inhibition result in assay [10] was “inactive”. Further, the 50% inhibitory concentration (IC50) in assay [1] is 18.7 µM; in assay [2], more than 50 µM; in assay [3], more than 50 µM.
As to `COc1ccc2nc3cc(Cl)ccc3c(NCc3ccccc3OC)c2c1`, the inhibition was 8.02% in assay [8], 44% in assay [9] and “tde” in [12]. For the same compound, the inhibition result in assay [10] was “inactive”. Moreover, in assay [11], the inhibition entry was “Active”. In addition, the IC50 stood at 5 µM in [1], 4.2 µM in assay [2] and 23.8 µM in assay [3].
In the case of `CCOc1ccc(Nc2c3ccc(Cl)cc3nc3ccc(OC)cc23)cc1`, the IC50 in assay [1] was found to be 3.2 µM; in assay [2], 7.4 µM; in [3] it was 41.6 µM.
On the same counts, the results for `COc1ccc2nc3cc(Cl)ccc3c(Nc3ccccc3O)c2c1` are 4.9 µM, 11.4 µM and more than 50 µM.
For `COc1ccc2nc3cc(Cl)ccc3c(Nc3ccc(N)cc3)c2c1`, the concentration for half-maximal inhibition (IC50) in assay [1] was found to be 7.7 µM; in assay [2], 11 µM; in [3] it was 23.2 µM.
In turn, `Cc1ccc(NC(=O)c2ccc(CN3CCN(C)CC3)cc2)cc1Nc1nccc(-c2cccnc2)n1` [IMATINIB] yielded an IC50 in assay [1] of 5.4 µM.
`COc1ccc2nc3cc(Cl)ccc3c(Nc3cccnc3N)c2c1`: the results for the half-inhibitory concentration (IC50) in [1], in [2] and in [3] were 11.7 µM, 10.6 µM and 23.2 µM, respectively.
In the case of `COc1ccc2nc3cc(Cl)ccc3c(Nc3ccccc3OC)c2c1`, the values for the IC50 in assay [1], in assay [2] and in assay [3] were 5.4 µM, more than 50 µM and more than 50 µM, respectively.
`CCOc1ccccc1Nc1c2ccc(Cl)cc2nc2ccc(OC)cc12`: the IC50 was 9 µM in assay [1], 27.9 µM in assay [2] and more than 50 µM in [3].
On the same counts, the results for `COc1ccc2nc3cc(Cl)ccc3c(Nc3cccc(NC(C)=O)c3)c2c1` are 21.3 µM, 36.8 µM and more than 50 µM.
Regarding `COc1ccc2nc3cc(Cl)ccc3c(Nc3ccccc3F)c2c1`, the concentration for half-maximal inhibition (IC50) was 13.5 µM in assay [1], 46.1 µM in assay [2] and more than 50 µM in [3].
Consider `COc1cc2c(c(OC)c1OC)-c1ccc(OC)c(=O)cc1[C@@H](NC(C)=O)CC2` [COLCHICINE], for which the 50% inhibitory concentration (IC50) in assay [2] and in assay [3] was 1.9 µM in each case.
As to `COc1ccc2nc3cc(Cl)ccc3c(Nc3cc(OC)c(OC)c(OC)c3)c2c1`, the values for the concentration for half-maximal inhibition (IC50) in assay [1], in assay [2] and in [3] were 31 µM, 16.8 µM and more than 50 µM, respectively.
`COc1cccc(Nc2c3ccc(Cl)cc3nc3ccc(OC)cc23)c1`: the concentration for half-maximal inhibition (IC50) in [1] was 2.7 µM; in assay [2] it was 14.9 µM; in assay [3], more than 50 µM.
As for `COc1ccc2nc3cc(Cl)ccc3c(Nc3cccc(N)n3)c2c1`, the inhibition in [8] worked out at 6.12%; in assay [9] it was 3.77%. For the same compound, the IC50 came to 12 µM in [1], 32.7 µM in [2] and 17.6 µM in assay [3].
For `COc1ccc2nc3cc(Cl)ccc3c(NCCN)c2c1`, the half-maximal inhibitory concentration (IC50) is 7 µM in assay [1], 6 µM in [2] and 9.3 µM in assay [3].
On to `COc1ccc2nc3cc(Cl)ccc3c(Nc3ccc(C(F)(F)F)cc3)c2c1`, for which the IC50 is 10.8 µM in assay [1], more than 50 µM in assay [2] and more than 50 µM in [3].

By IC50 is commonly meant the midpoint of a concentration-inhibition curve. Read a high IC50 as weaker potency. By inhibition is commonly meant the drop in the measured response relative to a control, in per cent.

Values taken from ChEMBL document CHEMBL1811850, “Exploration of acridine scaffold as a potentially interesting scaffold for discovering novel multi-target VEGFR-2 and Src kinase inhibitors” (Bioorg Med Chem, 2011).
